Values of other authors, collected in patent US20050137262A1, “Highly concentrated pourable aqueous solutions of potassium ibuprofen, their preparation and their uses” (priority 2003, published 2005).

CC(C)Cc1ccc(C(C)C(=O)[O-])cc1.[K+] (centres unmarked) [potassium ibuprofen, potassium 2-(4-isobutylphenyl)propionate]
concentration of dissolved potassium ibuprofen (U.S. Pat No. 5,912,011 Table 1, system with 35.2 wt % ibuprofen, 33.3 wt % PEG 600, 7.3 wt % water): 24.2 wt % | maximum concentration of dissolved potassium ibuprofen shown (U.S. Pat. No. 6,387,400, polyethylene glycol solvent, less than about 50 mole % of ibuprofen converted to potassium salt): about 24.2 wt %
